Patent publication US5859207A (priority 1996, dated 1999)

Tests used:
[1] = tested on: Human peripheral blood mononuclear cells (PBMC)
[2] = tested on: Human peripheral blood mononuclear cells (PBMC); format: cell-based
[3] = tested on: human monocytes; format: binding

Substance: toxic shock syndrome toxin one [TSST-1]
- TNFα production [1]: 99 units/ml
- TNFα production by monocytes depleted of T cells [1]: approximately 25 units TNFα/ml
- cytotoxic activity neutralized by anti-TNFα antibody [1]: 76%
- induction of TNFα production (in words) [1]: induced significant TNFα production

Substance: staphylococcal enterotoxin A [SEA]
- IL-1 activity [2]: 875±5 units/ml
- inhibition of biotinylated SEA(121-149) binding to monocytes [3]: specifically inhibited
- concentration at which native SEA is effective (TNFα induction) [1]: 0.1 to 1 nM
- cytotoxic activity neutralized by anti-TNFα antibody [1]: 63%
